How the values were obtained:
[1] = tested on: Rett R270X mutation construct in HEK-293 cells; experiment: Ex-vivo readthrough in transfected HEK-293 cells, R270X construct; assay type: cell-based, human; conditions: 16 hours incubation
Experimental: (§1) Nucleic acid constructs harboring Rett R168X, R270X, and R294X mutations were inserted into HEK-293 (human embryonic kidney) cells using Calcium Phosphate method. Six hours post-transfection, the tested aminoglycosides, at a concentration of 0.3 or 1 mM were added. The cells were harvested following 16 hours incubation with the tested aminoglycoside using passive lysis buffer. Readthrough activity was calculated as described hereinabove (see, Example 2).

[2] = tested on: Rett R294X mutation construct in HEK-293 cells; experiment: Ex-vivo readthrough in transfected HEK-293 cells, R294X construct; assay type: cell-based, human; conditions: 16 hours incubation
Experimental: as §1

[3] = Cytotoxicity assay, wst-1 cell proliferation, HEK-293; assay type: cell-based; conditions: human, HEK-293 cells, 24 hours incubation, read-out: LC50 Mean
Experimental: For the cytotoxicity assays, HEK-293 cells were grown in 96-well plates, the tested synthetic aminoglycosides, at various concentrations, were thereafter added (10 μL per well), and the cells were incubated for additional 24 hours. A cell proliferation assay (wst-1 based colorimetric assay), was performed by using 3-hour incubation. Optical density was measured using an ELISA plate reader.

[4] = tested on: Rett R168X mutation construct in HEK-293 cells; experiment: Ex-vivo readthrough in transfected HEK-293 cells, R168X construct; assay type: cell-based, human; conditions: 16 hours incubation
Experimental: as §1

[5] = tested on: Rett R168X nonsense mutation construct; assay type: biochemical; conditions: TNT reticulocyte lysate, dose-escalating; for Translational Inhibition (TI) R168X: 0-50 μM; for IC50: compounds at 0-50 μM, luciferase after 90 minutes at 30° C.
[6] = tested on: Rett R270X nonsense mutation construct; assay type: biochemical; conditions: TNT reticulocyte lysate, dose-escalating; for Translational Inhibition (TI) R270X: 0-50 μM; for IC50: compounds at 0-50 μM, luciferase after 90 minutes at 30° C.
[7] = tested on: Rett R168X, R270X, and R294X nonsense mutations; assay type: biochemical; conditions: TNT reticulocyte lysate, below the TI concentration
[8] = tested on: Rett R294X nonsense mutation construct; assay type: biochemical; conditions: TNT reticulocyte lysate, dose-escalating; for Translational Inhibition (TI) R294X: 0-50 μM; for IC50: compounds at 0-50 μM, luciferase after 90 minutes at 30° C.

Compound	% Readthrough R270X ([1]; 0.3 mM)	% Readthrough R270X ([1]; 1 mM)	% Readthrough R294X ([2]; 0.3 mM)	% Readthrough R294X ([2]; 1 mM)	CC50 at 24 h [3]	% Readthrough R168X ([4]; 0.3 mM)	% Readthrough R168X ([4]; 1 mM)	Translational Inhibition (TI) R168X [5]	IC50 [5]	Translational Inhibition (TI) R270X [6]	IC50 [6]	RT % (maximal readthrough compared with wild type) [7]	Translational Inhibition (TI) R294X [8]	IC50 [8]
C[C@H](N)[C@H]1O[C@@H](O[C@@H]2C(O)[C@H](N)CC(N)[C@H]2O[C@H]2OC(CO)[C@@H](O)[C@H](O)C2N)C(O)[C@H]1O (stereo partly drawn) [NB118]	1.15%	1.45%	0.24%	0.29%	40700 µM	0.53%	0.62%							
C[C@@H](N)[C@H]1O[C@@H](O[C@@H]2C(O)[C@H](N)CC(N)[C@H]2O[C@H]2OC(CO)[C@@H](O)[C@H](O)C2N)C(O)[C@H]1O (stereo partly drawn) [NB119]	1.70%	1.75%	0.36%	0.39%	32200 µM	0.79%	0.81%							
C[C@@H](N)[C@H]1O[C@@H](O[C@@H]2C(O)[C@H](NC(=O)[C@@H](O)CCN)CC(N)[C@H]2O[C@H]2OC(CO)[C@@H](O)[C@H](O)C2N)C(O)[C@H]1O (stereo partly drawn) [NB123]	1.90%	3.67%	0.72%	1.58%	19100 µM	0.84%	1.84%	22.23 μm	1.66 µM	14.48 μm	1.39 µM	3.8%	60.84 μm	1.75 µM
C[C@@H](O)C1O[C@H](O[C@@H]2C(N)C[C@@H](N)C(O)[C@H]2O[C@@H]2O[C@H]([C@@H](C)N)[C@H](O)C2O)C(N)[C@@H](O)[C@@H]1O (stereo partly drawn) [NB125]	1.03%	1.61%	0.46%	0.57%	26600 µM	0.81%	0.62%							
CC(N)C1OC(OC2C(O)C(NC(=O)C(O)CCN)CC(N)C2OC2OC(C(C)O)C(O)C(O)C2N)C(O)C1O (stereo not drawn) [NB128]	4.72%	5.64%	2.14%	2.84%		2.36%	3.52%	1.68 μm	< 0.5 µM	1.48 μm	< 0.5 µM	3.7%	1.91 μm	0.21 µM

Reference: patent publication US10576095B2, “Use of aminoglycoside analogs in the treatment of Rett syndrome” (priority 2014, dated 2020)
